Measured values reported in patent US11254668B2, “Pyrazolo[1,5-A]pyrazin-4-yl and related derivatives” (Pfizer Inc., priority 2017, dated 2022).

Experiments:
Assay type in all cases: biochemical
[1] = target: JAK1 (Homo sapiens (Human), UniProt P23458); test: JAK Caliper Enzyme Assay at 1 mM ATP, JAK1
In short: (§1)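 Recombinant human kinase domains phosphorylate a fluorescent synthetic peptide at 1 mM ATP, room temperature, with enzyme and time tuned for 20-30% conversion; EDTA-stopped. Product/substrate separated by microfluidic mobility shift; percent effect versus DMSO and positive controls fitted to IC50 (nM).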

[2] = target: JAK2 (Homo sapiens (Human), UniProt O60674); test: JAK Caliper Enzyme Assay at 1 mM ATP, JAK2
In short: (§2)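 Recombinant human kinase domains phosphorylate a fluorescent synthetic peptide at 1 mM ATP and room temperature, with enzyme level and time tuned to 20–30% conversion before an EDTA stop. Microfluidic mobility-shift separation gives percent product from peak heights. Percent effect against plate controls (DMSO baseline) is plotted versus compound concentration.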

[3] = target: TYK2 (Homo sapiens (Human), UniProt P29597); test: JAK Caliper Enzyme Assay at 1 mM ATP, TYK2
In short: as §2

[4] = target: JAK3 (Homo sapiens (Human), UniProt P52333); test: JAK Caliper Enzyme Assay at 1 mM ATP, JAK3
In short: as §1

JAK3, sequence (P52333 822-1111): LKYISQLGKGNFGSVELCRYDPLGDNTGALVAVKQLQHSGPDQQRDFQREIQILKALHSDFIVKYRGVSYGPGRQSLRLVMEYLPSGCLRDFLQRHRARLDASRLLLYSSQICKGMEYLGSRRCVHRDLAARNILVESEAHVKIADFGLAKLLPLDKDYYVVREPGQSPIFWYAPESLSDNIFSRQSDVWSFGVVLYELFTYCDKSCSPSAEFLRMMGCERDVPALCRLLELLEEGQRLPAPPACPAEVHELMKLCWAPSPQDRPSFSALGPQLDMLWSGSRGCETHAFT
JAK1, sequence (P23458 875-1153): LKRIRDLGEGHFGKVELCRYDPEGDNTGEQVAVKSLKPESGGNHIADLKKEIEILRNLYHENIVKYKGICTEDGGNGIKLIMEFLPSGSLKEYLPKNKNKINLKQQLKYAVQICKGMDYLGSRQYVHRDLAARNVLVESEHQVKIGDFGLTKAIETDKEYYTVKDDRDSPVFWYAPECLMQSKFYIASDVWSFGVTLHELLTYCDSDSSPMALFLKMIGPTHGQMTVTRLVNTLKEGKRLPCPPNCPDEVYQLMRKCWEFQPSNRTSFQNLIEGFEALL
TYK2, sequence (P29597 897-1176): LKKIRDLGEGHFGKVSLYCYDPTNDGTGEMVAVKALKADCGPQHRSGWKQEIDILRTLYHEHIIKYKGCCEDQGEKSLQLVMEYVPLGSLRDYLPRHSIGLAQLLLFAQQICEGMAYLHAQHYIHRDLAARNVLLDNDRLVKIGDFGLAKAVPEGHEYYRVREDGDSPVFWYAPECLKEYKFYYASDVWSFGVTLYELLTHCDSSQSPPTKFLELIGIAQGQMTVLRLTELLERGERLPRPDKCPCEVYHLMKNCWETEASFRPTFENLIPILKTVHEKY
JAK2, sequence (O60674 849-1124): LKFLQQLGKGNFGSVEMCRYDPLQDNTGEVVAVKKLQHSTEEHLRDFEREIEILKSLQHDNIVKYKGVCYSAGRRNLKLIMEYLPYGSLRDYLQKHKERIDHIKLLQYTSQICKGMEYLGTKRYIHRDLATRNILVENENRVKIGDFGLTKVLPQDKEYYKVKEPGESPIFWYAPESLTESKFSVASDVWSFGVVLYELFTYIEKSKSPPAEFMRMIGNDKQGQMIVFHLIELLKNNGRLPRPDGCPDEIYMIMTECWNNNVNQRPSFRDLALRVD

Row | IC50 [1] [nM] | IC50 [2] [nM] | IC50 [3] [nM] | IC50 [4] [nM] | SMILES
1 | 2020 | 224 | 53 | > 10000 | N#CC[C@]1(n2ccc(-c3nc(-c4cccc(O)n4)cc4ncccc34)n2)C[C@H](C#N)C1 [Example 182, trans-3-(cyanomethyl)-3-{3-[7-(6-hydroxypyridin-2-yl)-1,6-naphthyridin-5-yl]-1H-pyrazol-1-yl}cyclobutanecarbonitrile]
2 | 384 | 397 | 21 | > 10000 | N#CCC1(n2ccc(-c3nc(-c4ccc(O)nc4)cc4ncccc34)n2)CN(CC(F)(F)F)C1 [Example 183, [3-{3-[7-(6-hydroxypyridin-3-yl)-1,6-naphthyridin-5-yl]-1H-pyrazol-1-yl}-1-(2,2,2-trifluoroethyl)azetidin-3-yl]acetonitrile]
3 | 4030 | 4030 | 221 | > 10000 | CCN1CC(CC#N)(n2ccc(-c3nc(-c4ccc(O)nc4)cc4ncccc34)n2)C1 [Example 184]
4 | 2030 | 2070 | 88 | > 10000 | N#CCC1(n2ccc(-c3nc(-c4ccc(O)nc4)cc4ncccc34)n2)CN(C2CC(F)(F)C2)C1 [Example 185, [1-(3,3-difluorocyclobutyl)-3-{3-[7-(6-hydroxypyridin-3-yl)-1,6-naphthyridin-5-yl]-1H-pyrazol-1-yl}azetidin-3-yl]acetonitrile]
5 | > 10000 | > 10000 | 781 | > 10000 | COc1ncccc1-c1cc2ncccc2c(-c2ccn(C3(CC#N)CN(S(C)(=O)=O)C3)n2)n1 [Example 187, [3-{3-[7-(2-methoxypyridin-3-yl)-1,6-naphthyridin-5-yl]-1H-pyrazol-1-yl}-1-(methylsulfonyl)azetidin-3-yl]acetonitrile]
6 | 2720 | 902 | 80 | > 10000 | COc1ccc(-c2cc3ncccc3c(-c3ccn(C4(CC#N)CN(CC(F)(F)F)C4)n3)n2)cn1 [Example 188, [3-{3-[7-(6-methoxypyridin-3-yl)-1,6-naphthyridin-5-yl]-1H-pyrazol-1-yl}-1-(2,2,2-trifluoroethyl)azetidin-3-yl]acetonitrile]
7 | 8340 | 725 | 84 | > 10000 | COc1cc(-c2cc3ncccc3c(-c3ccn(C4(CC#N)CN(S(C)(=O)=O)C4)n3)n2)ccn1 [Example 189]
8 | 1310 | 596 | 55 | > 10000 | N#CC[C@]1(n2ccc(-c3nc(-c4ccc(N)cn4)cc4ncccc34)n2)C[C@@H](C#N)C1 [Example 190, cis-3-{3-[7-(5-aminopyridin-2-yl)-1,6-naphthyridin-5-yl]-1H-pyrazol-1-yl}-3-(cyanomethyl)cyclobutanecarbonitrile]
9 | 5060 | 931 | 75 | > 10000 | CS(=O)(=O)N1CC(CC#N)(n2ccc(-c3nc(-c4cccnc4N)cc4ncccc34)n2)C1 [Example 191]
10 | 951 | 841 | 68 | > 10000 | N#CCC1(n2ccc(-c3nc(-c4ccc(N)nc4)cc4ncccc34)n2)CN(CC(F)(F)F)C1 [Example 192]
11 | 5570 | 1680 | 147 | > 10000 | CS(=O)(=O)N1CC(CC#N)(n2ccc(-c3nc(-c4cncc(N)c4)cc4ncccc34)n2)C1 [Example 193]
12 | 843 | 436 | 45 | > 10000 | CS(=O)(=O)N1CC(CC#N)(n2ccc(-c3nc(-c4ccc(N)nc4)cc4ncccc34)n2)C1 [Example 194]
13 | 50 | 31 | 9 | 2060 | N#CC[C@]1(n2ccc(-c3nc(-c4ccc(N)nc4)cc4ncccc34)n2)C[C@@H](C#N)C1 [Example 195, cis-3-{3-[7-(6-aminopyridin-3-yl)-1,6-naphthyridin-5-yl]-1H-pyrazol-1-yl}-3-(cyanomethyl)cyclobutanecarbonitrile]
14 | 488 | 233 | 45 | > 10000 | N#CC[C@]1(n2ccc(-c3nc(-c4ccc(N)nc4)cc4ncccc34)n2)C[C@H](C#N)C1 [Example 196, trans-3-{3-[7-(6-aminopyridin-3-yl)-1,6-naphthyridin-5-yl]-1H-pyrazol-1-yl}-3-(cyanomethyl)cyclobutanecarbonitrile]
15 | 656 | 688 | 37 | > 10000 | N#CCC1(n2ccc(-c3nc(-c4ccnc(N)c4)cc4ncccc34)n2)CN(CC(F)(F)F)C1 [Example 197]
16 | 39 | 32 | 7 | 1930 | N#CC[C@]1(n2ccc(-c3nc(-c4ccnc(N)c4)cc4ncccc34)n2)C[C@@H](C#N)C1 [Example 198, cis-3-{3-[7-(2-aminopyridin-4-yl)-1,6-naphthyridin-5-yl]-1H-pyrazol-1-yl}-3-(cyanomethyl)cyclobutanecarbonitrile]
17 | 337 | 199 | 20 | > 10000 | N#CCC1(n2ccc(-c3nc(-c4ccnc(N)c4)cc4ncccc34)n2)CC(C#N)C1 (stereo not drawn) [Example 199, trans-3-{3-[7-(2-aminopyridin-4-yl)-1,6-naphthyridin-5-yl]-1H-pyrazol-1-yl}-3-(cyanomethyl)cyclobutanecarbonitrile]
18 | 3220 | 2970 | 573 | > 10000 | C[C@]1(C#N)C[C@](CC#N)(n2ccc(-c3nc(-c4ccnc(N)c4)cc4ncccc34)n2)C1 [Example 200, trans-3-{3-[7-(2-aminopyridin-4-yl)-1,6-naphthyridin-5-yl]-1H-pyrazol-1-yl}-3-(cyanomethyl)-1-methylcyclobutanecarbonitrile]
19 | 308 | 177 | 31 | > 10000 | C[C@]1(C#N)C[C@@](CC#N)(n2ccc(-c3nc(-c4ccnc(N)c4)cc4ncccc34)n2)C1 [Example 201, cis-3-{3-[7-(2-aminopyridin-4-yl)-1,6-naphthyridin-5-yl]-1H-pyrazol-1-yl}-3-(cyanomethyl)-1-methylcyclobutanecarbonitrile]
20 | > 10000 | > 10000 | 135 | > 10000 | CCOC(=O)Nc1cncc(-c2cc3ncccc3c(-c3ccn(C4(CC#N)CN(S(C)(=O)=O)C4)n3)n2)c1 [Example 202, ethyl [5-(5-{1-[3-(cyanomethyl)-1-(methylsulfonyl)azetidin-3-yl]-1H-pyrazol-3-yl}-1,6-naphthyridin-7-yl)pyridin-3-yl]carbamate]
21 | 264 | 86 | 14 | > 10000 | CN(C)c1ccc(-c2cc3ncccc3c(-c3ccn(C4(CC#N)CN(S(C)(=O)=O)C4)n3)n2)cn1 [Example 203]
22 | > 10000 | 6690 | 799 | > 10000 | CS(=O)(=O)Nc1cncc(-c2cc3ncccc3c(-c3ccn(C4(CC#N)CN(S(C)(=O)=O)C4)n3)n2)c1 [Example 204, N-[5-(5-{1-[3-(cyanomethyl)-1-(methylsulfonyl)azetidin-3-yl]-1H-pyrazol-3-yl}-1,6-naphthyridin-7-yl)pyridin-3-yl]methanesulfonamide]
23 | 120 | 149 | 17 | > 10000 | CS(=O)(=O)Nc1ccc(-c2cc3ncccc3c(-c3ccn(C4(CC#N)CN(S(C)(=O)=O)C4)n3)n2)cn1 [Example 205, N-[5-(5-{1-[3-(cyanomethyl)-1-(methylsulfonyl)azetidin-3-yl]-1H-pyrazol-3-yl}-1,6-naphthyridin-7-yl)pyridin-2-yl]methanesulfonamide]
24 | 2530 | 479 | 50 | > 10000 | CS(=O)(=O)c1ccc(-c2cc3ncccc3c(-c3ccn(C4(CC#N)CN(S(C)(=O)=O)C4)n3)n2)cn1 [Example 206, [1-(methylsulfonyl)-3-(3-{7-[6-(methylsulfonyl)pyridin-3-yl]-1,6-naphthyridin-5-yl}-1H-pyrazol-1-yl)azetidin-3-yl]acetonitrile]
25 | 285 | 56 | 24 | 9270 | CS(=O)(=O)c1ccc(-c2cc3ncccc3c(-c3ccn(C4(CC#N)CC(C#N)C4)n3)n2)cn1 (stereo not drawn) [Example 207, cis-3-(cyanomethyl)-3-(3-{7-[6-(methylsulfonyl)pyridin-3-yl]-1,6-naphthyridin-5-yl}-1H-pyrazol-1-yl)cyclobutanecarbonitrile]
26 | 2580 | 362 | 81 | > 10000 | CS(=O)(=O)c1ccc(-c2cc3ncccc3c(-c3ccn([C@]4(CC#N)C[C@@H](C#N)C4)n3)n2)cn1 [Example 208, trans-3-(cyanomethyl)-3-(3-{7-[6-(methylsulfonyl)pyridin-3-yl]-1,6-naphthyridin-5-yl}-1H-pyrazol-1-yl)cyclobutanecarbonitrile]
27 | 1940 | 433 | 51 | > 10000 | CS(=O)(=O)N1CC(CC#N)(n2ccc(-c3nc(-c4ccc(S(N)(=O)=O)nc4)cc4ncccc34)n2)C1 [Example 209, 5-(5-{1-[3-(cyanomethyl)-1-(methylsulfonyl)azetidin-3-yl]-1H-pyrazol-3-yl}-1,6-naphthyridin-7-yl)pyridine-2-sulfonamide]
